Measured values: the METLIN SMRT retention time set (Domingo-Almenara et al. 2019)

Assay: gradient 5% acetonitrile 3 min, to 50% in 2 min, to 85% in 15 min, held 3 min, 100 µL/min
Conditions: column: Zorbax Extend-C18 2.1 x 50 mm; eluents: water / acetonitrile, 0.1% formic acid
In short: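 Retention time was recorded from adduct peaks, which were picked computationally and each inspected manually. Pure standards ran in mixtures of ~100 molecules on HPLC coupled to a quadrupole time-of-flight mass spectrometer, in positive and negative ionization mode, through a Zorbax Extend-C18 column (2.1 × 50 mm, 1.8 μm) at 100 μL/min. Eluents were water and acetonitrile, each with 0.1% formic acid.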

Compound	RP-LC retention time [s]
Cc1nnc2cc(N3CCN(Cc4cn[nH]c4-c4ccccc4)CC3)cnn12	556
O=C(c1ccc(Cl)cc1)N(CCS(=O)(=O)N1CCNCC1)CC1CCCO1 (configuration not stated)	581
O=S(=O)(c1cc(-c2ccno2)cs1)N(Cc1cccs1)C1CCCCC1	1190
COc1ccccc1CN1CCN(C(=O)C2CCc3nc(N4CCCCC4)ncc3C2)CC1 (configuration not stated)	623
CCOc1ccc(CN2C[C@@H]3C(=O)N(CCc4ccccc4)C(=O)[C@@H]3C2)cc1OC	634
CC(=O)c1cn(CC(=O)NC(C)c2ccc3c(c2)OCCCO3)c2ccccc12 (configuration not stated)	794
N#Cc1ccsc1NC(=O)C1CCN(S(=O)(=O)c2ccc(Cl)s2)CC1	906
Cc1nn2c(CNC(=O)c3cccc(Br)c3)c(C)nc2s1	662
CC(C)C(=O)NCc1csc(C2CCCN(C(=O)CC(C)(C)C)C2)n1 (configuration not stated)	734
COCCc1nnc(NC(=O)c2cn(C)nc2OC)o1	558
CCN(Cc1ccccc1)Cc1cc(=O)n2cc(Cl)ccc2n1	616
NC(=O)C(c1ccccc1)(c1ccccc1)[C@@H]1CCN(CCc2ccc3c(c2)CCO3)C1	740
Cc1nn(CC(=O)NC2CCCCC2)c(=O)c2c(-n3cccc3)n(-c3ccc(Cl)cc3)nc12	1130
Cc1cc(Cl)ccc1S(=O)(=O)N1CCC(OC2CCN(c3ccccc3)C2=O)CC1 (configuration not stated)	1080
Cn1ccc2cc(S(=O)(=O)N3CCC(C(=O)N4CCN(c5ccccc5)CC4)CC3)ccc21	963
CCC(=O)N1CCc2cc(C(=O)N3CCN(c4ccc(C(C)=O)cc4)CC3)ccc21	736
O=C(O)c1[nH]nc2c1COc1ccccc1-2	673
COc1cccc(CNC(=O)C2=C3CCCN3c3ccc(Cl)cc3S2(=O)=O)c1	898
Cc1oc(-c2ccc(NC(=O)C3CCCO3)cc2)nc1Cn1cccn1 (configuration not stated)	774
CN(C)S(=O)(=O)c1ccc2c(c1)N(CC(=O)NCCc1ccco1)C(=O)C1CCCCN21 (configuration not stated)	842
Cn1c(=O)c(-c2ccc(C(=O)N3CCOCC3)cc2)nc2ccccc21	698
CC1=C(c2ccc(Cl)cc2)S(=O)(=O)N=C1N1CCC(C(=O)NC(C)C)CC1	779

Compound	RP-LC retention time [s]
COC(=O)c1c(NCCc2c[nH]c3ccccc23)c2cccc(Cl)c2[nH]c1=O	824
O=C(Nc1ccc2nc(-c3ccccc3)cc(N3CCOCC3)c2c1)NC1CCCCC1	732
CCCNS(=O)(=O)c1ccc(-c2cc(C(F)(F)F)on2)o1	1010
O=c1ccc(-c2ccc(F)cc2)nn1CCc1nc(-c2ccc(F)cc2)no1	712
O=C(NCc1ccccn1)c1nnn(Cc2ccccc2Cl)c1-n1cccc1	712
O=C(NC1CCCc2ccccc21)c1ccc(-n2nc(N3CCCC3)ccc2=O)cc1 (configuration not stated)	920
C[C@H]1CN(S(=O)(=O)c2ccc(F)cc2)C[C@@H]1c1nc(-c2ccccc2)no1	1120
Cc1ccc(C)c(C(=O)NC(c2ccccc2)c2nnc(N3CCCC3)o2)c1 (configuration not stated)	841
COc1ccccc1-c1nc(Cn2nnc(-c3nc(-c4ccc(OC(C)C)cc4)no3)c2C)c(C)o1	1230
O=C(Cn1ncc2c(N3CCN(c4ccccn4)CC3)ncnc21)Nc1cccc(Cl)c1	638
CCn1nccc1C(=O)NCCn1c(=O)n(Cc2ccccc2)c2cccnc21	740
Cc1cc(=O)n(CC(=O)Nc2cc(F)ccc2C)c(N2CCOCC2)n1	689
Cn1ncc2c3ccccc3n(CC(=O)N3CCC(C(N)=O)CC3)c2c1=O	611
COc1ccc(NC(=O)C2CCCN(c3ncnc4c3nc3n4CCCCC3)C2)c(OC)c1 (configuration not stated)	777
CC(NC(=O)C1CCN(C(=O)c2ncn3c2COC(c2ccc(Cl)cc2)C3)CC1)c1ccccc1 (configuration not stated)	854
CCOc1ccc(CC(=O)N2CCN(c3c(C)n(C)c(=O)n(C)c3=O)CC2)cc1OCC	742
CCOc1ccccc1NC(=O)C1CCN(S(C)(=O)=O)c2cc(C)ccc2O1 (configuration not stated)	830
CC(C)Oc1ccc(CNC(=O)C2CCCN(c3ccc(=O)n(-c4ccc(F)cc4)n3)C2)cc1 (configuration not stated)	900
COc1ccc(CCNC(=O)Cn2c(=O)n(CC3CCCO3)c(=O)c3ccccc32)cc1OC (configuration not stated)	732
CC1CCN(C(=O)C2CCN(c3nc4cccnc4s3)CC2)CC1	784
O=S(=O)(NCc1ccc2c(c1)OCO2)N1CCOCC1	677
Cc1nc(-c2cnccn2)n(CC(=O)Nc2cccc(C(C)C)c2)c(=O)c1C	855

Compound	RP-LC retention time [s]
CN(c1nc(-c2ccc([N+](=O)[O-])cc2)nc2ccccc12)C1CCCCC1	993
O=C(O)c1ccc2c(c1Nc1ccccc1)C(=O)c1ccccc1C2=O	1020
COc1ccc(-c2noc(C3CC(=O)N(c4ccc(OC)c(Cl)c4)C3)n2)c(OC)c1 (configuration not stated)	1010
COc1ccc(Cl)cc1S(=O)(=O)N1CCC(C(=O)NCc2cccnc2)CC1	625
Cc1cc2nn(CC(=O)NCC3CCCO3)c(=O)n2c(Nc2ccccc2C)n1 (configuration not stated)	808
Cc1ccc(CNC(=O)C2(C)CCCN(C(=O)Nc3cccc(Cl)c3)C2)cc1 (configuration not stated)	1040
CCC(C(=O)N1CCN(c2cc(-c3ccc(Cl)cc3)[nH]n2)CC1)c1ccccc1 (configuration not stated)	987
COc1cc(-c2noc(Cc3nnc(-c4ccc(C)c(F)c4)o3)n2)cc(OC)c1OC	996
CCN(CC)CCNC(=O)C1CCN(C2=NS(=O)(=O)C(c3ccc(Cl)cc3)=C2C)CC1	658
Cc1ccccc1OCCCCn1c(CN2CCOCC2)nc2ccccc21	646
C[C@@H]1CN(C(=O)Cc2cccnc2)C[C@H]1c1nc(-c2ccncc2)no1	568
O=C(CCc1conc1-c1ccc(F)cc1)NCC1CCCCC1	996
O=C(C1CCc2nc(N3CCCC3)ncc2C1)N1CCN(Cc2ccc3c(c2)OCO3)CC1 (configuration not stated)	566
CCC(C)(C)NS(=O)(=O)c1cc(-c2nc(C)c(C(=O)N3CCCC3)s2)n(C)c1	838
O=C(Nc1cnc(N2CCCC2)nc1)c1ccc(Cl)cc1	765
CCn1c(=O)n(-c2ccc(F)cc2)c2nc(-c3ccc(F)cc3F)nc(C(N)=O)c21	1000
O=C(NCc1cccnc1)c1nnc(-c2ccc(S(=O)(=O)N3CCOCC3)cc2)o1	596
CS(=O)(=O)N1CCC(C2CCN(Cc3ccc(C#N)cc3)C2)CC1 (configuration not stated)	597
COc1ccc(OC)c(NC(=O)C(C)C2CCN(C(=O)Nc3ccc(C)cc3)CC2)c1 (configuration not stated)	908
CCc1c(C)nc2nc(-c3ccco3)nn2c1N1CCN(c2ccccn2)CC1	616
O=C(c1ccc(C(F)(F)F)cc1)N1CCC(n2c(-c3ccoc3)nc3cccnc32)C1 (configuration not stated)	827
Cc1noc(C)c1CNC(=O)C(C)Oc1cccc(Cl)c1 (configuration not stated)	832

Compound	RP-LC retention time [s]
O=c1n(CCOc2ccc(F)cc2)nc2ccc(S(=O)(=O)N3CCCC3)cn12	859
O=C(NC1CCCCC1)C1CCc2nc(N3CCCCC3)ncc2C1 (configuration not stated)	723
Cc1cc(C)cc(NS(=O)(=O)c2ccc(-c3c(C)noc3C)cc2)c1	989
CCC(CO)NCc1ccc(-c2cccc(Cl)c2)o1 (configuration not stated)	658
Nc1c(C(=O)NCC2CCCO2)c2nc3ccccc3nc2n1C1CCCC1 (configuration not stated)	1070
Cc1nn(-c2ccc(Cl)cc2)c(C)c1S(=O)(=O)N1CCC(C(=O)N2CCN(C)CC2)CC1	642
CCOC(=O)c1ccc(NC(=O)Cn2cccc(-c3nc(-c4ccc(F)cc4)no3)c2=O)cc1	922
O=C(Cn1nc(N2CCSCC2)c2ccccc2c1=O)Nc1ccc(Br)cc1	1000
COC(=O)c1c(C)[nH]c(C(=O)N2CCC(CC(=O)N3CCN(c4ccccc4)CC3)CC2)c1C	775
CC(=O)N1CCc2cc(N3CC(C(=O)NCc4ccc(F)cc4F)CC3=O)ccc21 (configuration not stated)	692
Cc1cc2nc(C(=O)Nc3cc(F)cc(F)c3)cc(C)n2n1	1050
COc1ccc(-n2ccn3cc(-c4ccc(OC)c(OC)c4)nc3c2=O)cc1Cl	780
CCCN(CC1CCOC1)C(=O)Nc1cccc(Br)c1 (configuration not stated)	876
O=C(COc1ccc(Cl)cc1)Nc1ccc(-c2nc(-c3ccc(F)cc3)no2)cc1	1260
Cc1ccc(Cl)cc1NC(=O)Cc1c(C)nn(-c2nc(-c3ccc(F)cc3)cs2)c1C	1250
CCc1ccc(CNC(=O)c2cn3c(n2)CCCC3)cc1	646
Cc1cccc(-c2noc(CN3C(=O)COc4cc(Cl)ccc43)n2)c1	1160
O=C(CC1=C2CCCCC2NC1=O)NCCc1c[nH]c2ccccc12 (configuration not stated)	673
CN(C)[C@@H]1CN(C(=O)CCc2nc3ccc(Cl)cc3[nH]2)C[C@H]1CO	529
CCn1cnc(S(=O)(=O)N2CCC(C(=O)NC3CCCCCCC3)CC2)c1	769
COc1cc(OC)c(N(C)C(=O)C2CCCN(c3ncnc4c3nc3n4CCCCC3)C2)cc1Cl (configuration not stated)	854
